{"source": "ChEMBL document CHEMBL3832051", "about": "“DailyMed|setid=970a767a-7a65-4cdf-84fe-4dbe0a77b80a | METRONIDAZOLE - metronidazole lotion|Physicians Total Care, Inc”", "experiment": "Evaluation of pharmacokinetic parameters for metronidazole following topical administration of 7.5 mg of metronidazole (1 g metronidazole topical lotion) for 4 days to the faces of 8 patients.", "type": "ADME, organism-based", "set-up": "dose 7.5 mg, route topical", "settings": "human, in vivo, topical or ocular, dosed compound id 31, dosed compound name METRONIDAZOLE, gender male and female, regimen Twice daily, study dosing duration 4 days, tissue Plasma"}
{"smiles": "Cc1ncc([N+](=O)[O-])n1CCO", "note": "[METRONIDAZOLE]", "values": [{"measurement": "Cmax", "setting": "sampling time1 5 days", "value": 96, "unit": "ng/mL"}, {"measurement": "AUC at 96 h", "setting": "read-out: AUC(0-24)", "value": 962, "unit": "ng·h/mL"}]}
